Measured values from patent US20220031680A1, “Donecopride As Neuroprotective Agent In the Treatment of Neurodegenerative Diseases” (priority 2018, published 2022).
Marks after values point to notes of the source that are not given here.

System: rat primary hippocampal neurons injured with Aβ 1-42
Assay: Survival and neurite network of MAP-2 neurons in primary hippocampal neurons injured with Aβ1-42
Type: cell-based
Details: for MAP-2 neurite network (% of control) / MAP-2 neurons (% of control) / Neurite network/MAP-2 neurons (% of control): Aβ 1-42 (20 μM) 24 h; for MAP-2 neurons (% of control): 1 h preincubation; for Neurite network/MAP-2 neurons (% of control): neurite network normalized by number of neurons
Method: Rat hippocampal neurons were cultured as described by Callizot et al. (2013) J. Neurosci. Res. 91706-716. Pregnant female rats of 17 days gestation (Rats Wistar; Janvier Labs France) were killed using a deep anesthesia with CO2 chamber followed by a cervical dislocation. Then, fetuses were removed from the uterus and immediately placed in ice-cold L15 Leibovitz medium with a 2% penicillin (10,000 U/ml) and streptomycin (10 mg/ml) solution (PS) and 1% bovine serum albumin (BSA). Hippocampal neurons were treated for 20 min at 37° C. with a trypsin-EDTA solution at a final concentration of 0.05% trypsin and 0.02% EDTA. The dissociation was stopped by adding Dulbecco's modified Eagle's medium (DMEM) with 4.5 g/l of glucose, containing DNAse I grade II (final concentration 0.5 mg/ml) and 10% fetal calf serum (FCS). Cells were mechanically dissociated by three forced passages through the tip of a 10-ml pipette and then centrifuged at 515×g for 10 min at 4° C. The supernatant was discarded, and the pellet was resuspended in a defined culture medium consisting of Neurobasal medium with a 2% solution of B27 supplement, 2 mmol/l of L-glutamine, 2% of PS solution, and 10 ng/ml of brain-derived neurotrophic factor (BDNF). Viable cells were counted in a Neubauer cytometer, using the trypan blue exclusion test. Cells were seeded at a density of 20,000 per well in 96-well plates precoated with poly-L-lysine and cultured at 37° C. in an air (95%)-CO2 (5%) incubator. The medium was changed every 2 days.
The hippocampal neurons were exposed with Aβ solutions (see below) after 17 days of culture. The Aβ1-42 preparation was done following the procedure described by Callizot et al. (2013) J. Neurosci. Res. 91706-716. Briefly, Aβ1-42 peptide was dissolved in the defined culture medium mentioned above, at an initial concentration of 40 μM. This solution was gently agitated for 3 days at 37° C. in the dark and immediately used after being properly diluted in culture medium to the concentrations used (20 μM (plate 1) or 2.5 μM (plate 2) corresponding to 2 μM or 0.25 μM of oligomers (AβO) respectively).
Donecopride fumarate was solved in culture medium and preincubated 1 h before Aβ application. Aβ1-42 preparation was added to a final concentration of 20 or 2.5 μM (=2 μM or 0.25 μM of AβO, evaluated by automatic Western Blot) diluted in control medium in presence of Donecopride.
Donecopride fumarate (Donecopride) was tested on one culture in a 96 well plate (6 wells per conditions). The compound was preincubated one hour before Aβ application. The following conditions were assessed:
24 hours after intoxication, the hippocampal neurons were fixed by a cold solution of ethanol (95%) and acetic acid (5%) for 5 min at −20° C. After permeabilization with 0.1% of saponin, cells were incubated for 2 h with:
a) chicken polyclonal antibody anti microtubule-associated-protein 2 (MAP-2), diluted at 1/1000 in PBS containing 1% fetal calf serum and 0.1% of saponin (this antibody allows the specific staining of neuronal cell bodies and neurites; and allow the study of neuronal cell death and neurite network).
For each condition, 30 pictures (representative of the whole well area) per well were taken using ImageXpress (Molecular Devices) at 20× magnification. All images were taken with the same acquisition parameters. Analyses were performed automatically by using Custom Module Editor (Molecular Devices).
The following endpoints were assessed: • Total number of neurons (neuron survival, number of MAP-2 positive neurons) • Neurite network (in μm of MAP-2 positive neurons) • area of tau in neurons (μm^2, overlapping with MAP-2 positive neurons).
All values are expressed as mean+/−SEM. Statistical analysis was performed by one-way ANOVA, followed by PLSD Fisher's test, p<0.05 were considered significant.
Rat hippocampal neurons were cultured as described by Callizot et al. (2013) J. Neurosci. Res. 91:706-716. […]

[1] = Aβ1-42 injured hippocampal neurons, Example 4

With `COc1cc2c(cc1OC)C(=O)C(CC1CCN(Cc3ccccc3)CC1)C2` (stereo not drawn) [Donepezil, reference compound] the “MAP-2 neurite network (% of control)” value (1 μM) was 92* % of control, the “MAP-2 neurons (% of control)” value (1 μM) was 82* % of control and the “Neurite network/MAP-2 neurons (% of control)” value (1 μM) was 113* % of control.

In the case of `COc1cc(N)c(F)cc1C(=O)CCC1CCN(CC2CCCC2)CC1` [MR33583], the “active concentrations (neuroprotective effect)” value (Aβ1-42 injured hippocampal neurons (FIGS. 7 and 8)) is reported as 50 to 500 nM, the “effect on neurite network” value [1] is reported as “strong effect on neurite network was observed at almost every tested dose” and the “neuroprotective effect (survival, neurite and synaptic network)” value [1] is reported as “neuroprotective effect following a bell shaped curved”.

`COc1cc(N)c(Cl)cc1C(=O)CCC1CCN(CC2CCCCC2)CC1` [Donecopride] was tested, and the “MAP-2 neurite network (% of control)” value (1 nM) was 64 % of control, the “MAP-2 neurons (% of control)” value (1 nM) was 70 % of control and the “Neurite network/MAP-2 neurons (% of control)” value (1 nM) was 90 % of control. For the same molecule, the “MAP-2 neurite network (% of control)” value (5 nM) was 69 % of control, the “MAP-2 neurons (% of control)” value (5 nM) was 69 % of control and the “Neurite network/MAP-2 neurons (% of control)” value (5 nM) was 99 % of control. For the same molecule, the “MAP-2 neurite network (% of control)” value (10 nM) was 68 % of control, the “MAP-2 neurons (% of control)” value (10 nM) was 73 % of control and the “Neurite network/MAP-2 neurons (% of control)” value (10 nM) was 96 % of control. The “MAP-2 neurite network (% of control)” value (50 nM) was 71* % of control, the “MAP-2 neurons (% of control)” value (50 nM) was 74 % of control and the “Neurite network/MAP-2 neurons (% of control)” value (50 nM) was 91 % of control. The “MAP-2 neurite network (% of control)” value (100 nM) was 73* % of control, the “MAP-2 neurons (% of control)” value (100 nM) was 78* % of control and the “Neurite network/MAP-2 neurons (% of control)” value (100 nM) was 93 % of control. For the same molecule, the “MAP-2 neurite network (% of control)” value (500 nM) was 79* % of control, the “MAP-2 neurons (% of control)” value (500 nM) was 79* % of control and the “Neurite network/MAP-2 neurons (% of control)” value (500 nM) was 100 % of control. The “MAP-2 neurite network (% of control)” value (1 μM) was 76* % of control, the “MAP-2 neurons (% of control)” value (1 μM) was 62* % of control and the “Neurite network/MAP-2 neurons (% of control)” value (1 μM) was 124* % of control.

`COc1cc(N)c(F)cc1C(=O)CCC1CCN(CC2CCCCC2)CC1` [Flucopride] was tested, and the “neuroprotective effect (survival, neurite and synaptic network)” value [1] was “strong neuroprotective effect” and the “concentration of maximum effect on survival and neurite network” value (Aβ1-42 injured hippocampal neurons, bell shaped curve (FIGS. 1A-C)) was 100 nM.

`COc1cc(N)c(F)cc1C(=O)CCC1CCN(CC2CCCCCC2)CC1` [MR36014] was tested, and the “neuroprotective effect (survival, neurite network, Tau hyperphosphorylation)” value (pM doses, Aβ1-42 injured hippocampal neurons, Example 5 (FIG. 11)) was “neuroprotective effect was also observed at pM doses”.
